Laboratory results as given in patent US20180201654A1, “PEPTIDE INHIBITORS OF HAUSP DEUBIQUITINASE” (priority 2012, published 2018).
Where two headings read alike, the source gives them in different places.

Experiments:
[1] = target: T1, HAUSP TRAF domain HAUSP^62-205 (Homo sapiens, UniProt Q93009); format: binding; set-up: All residues of HAUSP^62-205, with the exception of Asp^62, are included in the final model; hexahistidine tag (TEV-cleavable) (cleaved yes); made in house; host or cells: E. coli BL21 (DE3) RIPL; details: for n: ITC binding stoichiometry, 150 mM NaCl, 10 mM HEPES (pH 7.0)
T1 sequence (Q93009 62-205): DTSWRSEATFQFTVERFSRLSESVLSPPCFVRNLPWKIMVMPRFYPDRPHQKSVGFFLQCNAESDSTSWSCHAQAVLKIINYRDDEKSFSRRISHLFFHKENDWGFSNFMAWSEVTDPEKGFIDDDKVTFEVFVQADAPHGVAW
Description: FIG. 5. Typical isothermal titration calorimetric measurements of the interactions between the HAUSP TRAF domain and the vIRF4 protein derivatives or other peptides. Purified proteins and synthesized peptides were reconstituted in 150 mM NaCl and 10 mM HEPES (pH 7.0). The calorimetric assays were performed using a VPITC system. All experiments were carried out with a stirring speed of 300 rpm at 20° C., and the thermal power was recorded every 10 s. Data were analyzed using the ORIGIN software package (version 7.0). […] Each titration against the HAUSP TRAF domain is indicated in each panel.
(§1) Purified proteins and synthesized peptides (Peptron Inc., Deajeon, Korea) were reconstituted in 150 mM NaCl and 10 mM HEPES (pH 7.0). The calorimetric assays were performed using a VP-ITC system (MicroCal Inc., Northampton, Mass.). Samples were degassed by vacuum aspiration for 15 min prior to loading. All experiments were carried out with a stirring speed of 300 rpm at 20° C., and the thermal power was recorded every 10 s. Data were analyzed using the ORIGIN software package (version 7.0) supplied with the instrument. […] (SEQ ID NO: 6); EBNA1^435-449, […] (SEQ ID NO: 7); MDM2^137-152, […] […] (SEQ ID NO: 10). Each set of ITC experiments was repeated two or three times.

[2] = system: PEL cells carrying p53 (wt); assay: Apoptosis assay (Annexin V/PI, flow cytometry) in PEL cells; format: cell-based, human; details: 10 μM
Description: (§2) FIG. 3a-3g. […] Data are culled from 3 independent experiments.
The proportion of cells at the S phase was determined by measuring incorporation of BrdU and 7-amino-actionomycin D (ADD) into DNA. Cells were grown at a density of 5×10^6 cells/ml indicated periods with the treatment of either peptide or Nutlin-3a. The cells were pulse-labeled with 10 μM BrdU for 30 min. Cells were permeabilized, fixed and BrdU-, 7AAD-stained using the BrdU Flow Kit (BD Pharmingen) according to manufacturer's instructions. Stained cells were analyzed by flow cytometry to determine the cell-cycle distribution on a FACS Scan (BD FACSCanto™ II). Apoptosis was measured by dual-labeling with the Annexin V-FITC Apoptosis Detection kit I (BD biosciences-Pharmingen) according to the manufacturer's instruction and analyzed by Flow Jo software.
Shown is one representative experiment of three. It was shown that vif1/2 peptides cause cell death by apoptosis.
In this respect, BCBL-1 cells were treated with 100 μM of either vif1 or vif2 peptide for the indicated time periods and then subjected to Annexin V and PI staining, followed by FACS analysis. 10 μM Nutlin-3a was used as a positive control.

[3] = system: primary TKI-resistant Ph^+ and normal ALL cells; assay: Long-term cell culture of TKI-resistant ALL cells; format: cell-based, human; details: single agent, FIG. 15
Text: To test whether vif1 and vif2 peptides have killing effect on relapse leukemia, this example chose two different karyotype relapse ALL cells: Ph^+BCR-ABL^T3151 and normal. The T3151 mutation is one of the common mechanism of escape and resistance against all kinds of tyrosine kinase inhibitors (TKIs). After treatment of these peptides into several different relapse ALL cells, this example performed Trypan blue staining to select dead cells in time dependent manner. […] This example next validated the effect of nilotinib/TAT-vif1 (or TAT-vif2) combination on primary TKI-resistance in Ph^+ and normal ALL during long-term cell culture.

[4] = target: T2, HAUSP TRAF domain (Homo sapiens, UniProt Q93009); format: binding
T2 construct: All residues of HAUSP^62-205, with the exception of Asp^62, are included in the final model; hexahistidine tag (TEV-cleavable) (cleaved yes); made in house; host or cells: E. coli BL21 (DE3) RIPL
T2 sequence (Q93009 62-205): as above
Description: FIG. 9. Typical isothermal titration calorimetric measurements of the competitive binding of vIRF4 with TRAF domain against cellular substrates. […] Each competitive titration is indicated in the panel.
as §1
To further gauge the competitive nature of vIRF4 binding, the TRAF domain was incubated with an equal molar amount of vIRF4^153-216 in the presence of a 5-fold molar excess of MDM2^137-152, and the mixture was then analyzed by size exclusion chromatography.

[5] = target: T3, USP8 (Homo sapiens, UniProt P40818); assay: In vitro deubiquitination assay with purified USP8; format: biochemical; details: 0.25 μM purified USP8 pre-mixed with peptide for 5 min; K48- or K63-linked chains
T3 sequence (P40818 1-1118): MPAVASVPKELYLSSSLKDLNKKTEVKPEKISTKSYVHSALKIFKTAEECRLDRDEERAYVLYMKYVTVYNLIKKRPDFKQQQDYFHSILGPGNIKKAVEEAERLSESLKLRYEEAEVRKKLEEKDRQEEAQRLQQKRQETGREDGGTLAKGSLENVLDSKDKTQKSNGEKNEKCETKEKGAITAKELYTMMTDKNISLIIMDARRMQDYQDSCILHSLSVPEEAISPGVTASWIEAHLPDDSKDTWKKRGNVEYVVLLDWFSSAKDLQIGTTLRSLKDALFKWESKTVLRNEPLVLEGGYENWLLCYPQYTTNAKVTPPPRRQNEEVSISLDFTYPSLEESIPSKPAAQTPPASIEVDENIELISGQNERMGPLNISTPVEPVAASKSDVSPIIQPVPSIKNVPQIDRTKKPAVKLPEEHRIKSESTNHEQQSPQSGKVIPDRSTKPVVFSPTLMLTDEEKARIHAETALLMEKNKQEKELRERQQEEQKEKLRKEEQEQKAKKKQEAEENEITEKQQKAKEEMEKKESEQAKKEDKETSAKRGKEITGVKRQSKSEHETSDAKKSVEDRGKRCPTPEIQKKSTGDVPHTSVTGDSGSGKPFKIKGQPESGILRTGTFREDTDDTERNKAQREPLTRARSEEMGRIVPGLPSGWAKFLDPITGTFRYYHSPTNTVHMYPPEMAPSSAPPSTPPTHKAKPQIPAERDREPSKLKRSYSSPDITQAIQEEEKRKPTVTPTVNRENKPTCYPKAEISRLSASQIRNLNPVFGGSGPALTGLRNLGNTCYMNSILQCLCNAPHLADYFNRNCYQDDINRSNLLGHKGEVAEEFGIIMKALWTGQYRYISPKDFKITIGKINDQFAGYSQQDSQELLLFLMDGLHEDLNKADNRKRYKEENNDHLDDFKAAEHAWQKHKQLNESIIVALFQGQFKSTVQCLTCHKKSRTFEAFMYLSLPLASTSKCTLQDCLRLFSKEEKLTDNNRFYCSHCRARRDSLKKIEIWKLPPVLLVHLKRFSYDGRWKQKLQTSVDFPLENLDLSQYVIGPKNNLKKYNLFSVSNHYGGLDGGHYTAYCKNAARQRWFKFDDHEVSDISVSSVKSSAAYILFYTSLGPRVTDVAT

[6] = system: p53, p21, MDM2 and HAUSP levels in PEL cells; assay: Western blot of p53 and its transcriptional targets in PEL cells; format: cell-based, human; details: peptide treatment
Text: as §2

[7] = target: T4, HAUSP (USP7) (Homo sapiens, UniProt Q93009); assay: In vitro DUB assay with ubiquitinated MDM2 as substrate; details: HAUSP preincubated with increasing amounts of peptide; 1 h at 37° C.
T4 sequence (Q93009 whole entry): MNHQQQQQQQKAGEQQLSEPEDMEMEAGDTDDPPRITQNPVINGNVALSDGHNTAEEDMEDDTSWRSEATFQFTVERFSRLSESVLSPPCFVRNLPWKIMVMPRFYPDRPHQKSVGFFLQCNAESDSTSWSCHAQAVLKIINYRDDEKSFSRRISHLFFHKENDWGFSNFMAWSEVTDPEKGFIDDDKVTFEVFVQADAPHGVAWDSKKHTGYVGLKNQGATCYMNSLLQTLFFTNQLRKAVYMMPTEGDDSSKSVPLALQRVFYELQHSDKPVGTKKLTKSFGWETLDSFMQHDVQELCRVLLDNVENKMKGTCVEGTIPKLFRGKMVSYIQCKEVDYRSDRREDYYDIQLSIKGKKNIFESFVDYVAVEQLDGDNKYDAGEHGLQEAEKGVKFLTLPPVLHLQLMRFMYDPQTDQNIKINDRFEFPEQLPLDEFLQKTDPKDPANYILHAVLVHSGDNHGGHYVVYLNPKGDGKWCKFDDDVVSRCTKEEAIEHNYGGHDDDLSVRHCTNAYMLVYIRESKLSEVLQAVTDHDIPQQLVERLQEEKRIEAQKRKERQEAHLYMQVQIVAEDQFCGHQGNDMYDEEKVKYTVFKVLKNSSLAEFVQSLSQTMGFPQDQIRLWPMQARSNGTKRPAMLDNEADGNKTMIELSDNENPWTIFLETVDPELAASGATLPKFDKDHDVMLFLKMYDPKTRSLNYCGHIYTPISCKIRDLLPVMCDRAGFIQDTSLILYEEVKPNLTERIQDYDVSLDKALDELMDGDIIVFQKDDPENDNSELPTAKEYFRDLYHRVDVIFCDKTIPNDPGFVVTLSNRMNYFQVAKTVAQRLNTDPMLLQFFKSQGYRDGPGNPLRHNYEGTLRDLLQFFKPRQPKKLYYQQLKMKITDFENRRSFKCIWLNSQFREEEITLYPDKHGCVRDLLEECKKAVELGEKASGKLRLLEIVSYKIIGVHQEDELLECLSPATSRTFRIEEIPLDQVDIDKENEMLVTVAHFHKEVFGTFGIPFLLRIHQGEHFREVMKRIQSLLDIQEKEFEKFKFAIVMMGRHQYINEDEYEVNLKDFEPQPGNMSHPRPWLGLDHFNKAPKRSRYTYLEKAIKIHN

[8] = target: T4, HAUSP (USP7); details: time-course, K48-Ub3-7 chains, 37° C.
[9] = target: T1, HAUSP TRAF domain HAUSP^62-205; assay: Size exclusion chromatography of complex formation in excess MDM2^137-152; format: binding; set-up: hexahistidine tag (TEV-cleavable) (cleaved yes); made in house; host or cells: E. coli BL21 (DE3) RIPL; details: in the presence of a 5-fold molar excess of MDM2^137-152

Row | Molecule | n ([1]; 20° C.) | TΔS ([1]; ITC, 20° C., pH 7.0) [kcal/mol] | ΔG ([1]; ITC, 20° C., pH 7.0) [kcal/mol] | ΔH ([1]; ITC, 20° C., pH 7.0) [kcal/mol] | USP8 DUB activity [5] | HAUSP levels [6] | HAUSP DUB activity against ubiquitinated MDM2 [7] | HAUSP DUB activity, comparative kinetic analysis [8] | also measured
1 | C[C@H](NC(=O)[C@@H]1CCCN1C(=O)CNC(=O)[C@H](CCC(N)=O)NC(=O)[C@@H](N)CCC(=O)O)C(=O)N[C@@H](CC(=O)O)C(=O)N[C@@H](CC(=O)O)C(=O)N1CCC[C@H]1C(=O)NCC(=O)N[C@@H](CCC(=O)O)C(=O)NCC(=O)N1CCC[C@H]1C(=O)N[C@@H](CO)C(=O)N[C@H](C(=O)NCC(=O)O)[C@@H](C)O [EBNA1^435-449, reference compound] | 0.81 ± 0.01 | -8.69 | -8.48 | -17.17 ± 0.13 | – | – | – | – | Ka ([1]; ITC, 20° C., pH 7.0): 2.10 ± 0.15 10^6 M^−1
2 | COc1ccc(C2=N[C@@H](c3ccc(Cl)cc3)[C@@H](c3ccc(Cl)cc3)N2C(=O)N2CCNC(=O)C2)c(OC(C)C)c1 [Nutlin-3a] | – | – | – | – | – | – | – | – | cell death [2]: considerable cell death
3 | Cc1cn(-c2cc(NC(=O)c3ccc(C)c(Nc4nccc(-c5cccnc5)n4)c3)cc(C(F)(F)F)c2)cn1 [nilotinib] | – | – | – | – | – | – | – | – | response of refractory ALL cells in long-term culture [3]: did not achieve a therapeutic response
4 | CC[C@H](C)[C@H](NC(=O)[C@H](Cc1c[nH]c2ccccc12)NC(=O)[C@@H](NC(=O)[C@@H](N)CO)C(C)C)C(=O)N1CCC[C@H]1C(=O)N[C@H](C(=O)N[C@@H](CC(N)=O)C(=O)N[C@@H](CCC(=O)O)C(=O)NCC(=O)N[C@@H](C)C(=O)N[C@@H](CO)C(=O)N[C@H](C(=O)N[C@@H](CO)C(=O)NCC(=O)N[C@@H](CCSC)C(=O)O)[C@@H](C)O)C(C)C [vIRF4^202-216] | 0.84 ± 0.01 | -10.63 | -8.60 | -19.22 ± 0.05 | can not inhibit | Neither vif1 nor vif2 peptide treatment altered | efficiently blocked | weakly attenuated | association constant (Kobs) ([4]; competitor titrated against MDM2^137-152-bound TRAF): 1.09e+07 M⁻¹; association constant (Kobs) ([4]; competitor titrated against p53^350-364-bound TRAF): 4.42e+07 M⁻¹; association constant (Kobs) ([4]; competitor titrated against p53^355-369-bound TRAF): 3.58e+07 M⁻¹; Kobs ([4]; titrated to MDM2^137-152-TRAF): 10.875 ± 1.308 10^6 M^−1; ΔHobs ([4]; titrated to MDM2^137-152-TRAF): -25.870 ± 0.240 kcal/mol; Kobs ([4]; titrated to p53^350-364-TRAF): 44.200 ± 4.200 10^6 M^−1; ΔHobs ([4]; titrated to p53^350-364-TRAF): -19.070 ± 0.194 kcal/mol; Kobs ([4]; titrated to p53^355-369-TRAF): 35.800 ± 3.400 10^6 M^−1; ΔHobs ([4]; titrated to p53^355-369-TRAF): -19.150 ± 0.203 kcal/mol; complex formation with the TRAF domain [9]: formed a stable complex; tighter binding to the TRAF domain compared to the peptides derived from MDM2 and p53 ([1]; ITC): 28-40 fold
5 | TRQVTQASSFTWRVPG (GTRQVTQASSFTWRVPG; Human herpesvirus 8) [vif2] | – | – | – | – | can not inhibit | Neither vif1 nor vif2 peptide treatment altered | efficiently blocked | completely suppressed | –
